Results on 1 compound are retold here after paper PMC6435784, “Gut Microbiota-Based Pharmacokinetics and the Antidepressant Mechanism of Paeoniflorin” (Frontiers in Pharmacology, 2019).

Series [1] can be described thus: Metabolism of paeoniflorin in the homogenate of the liver tissue in vitro. The note with it: 100 μg/mL paeoniflorin, 37°C, 1 h, compared with intestinal bacteria incubation system, ***P < 0.001. The class given is in vitro ADME, rat. How it is done: Fresh rat liver tissue was cut into small pieces, 0.05 M Tris-HC1 buffer (1:2, pH 7.4) was added. The mixture was homogenized in a mixer and paeoniflorin was added to the liver homogenate at a final concentration of 100 μg/mL. Then, the mixture was incubated at 37°C for 1 h. The above reactions were terminated by the addition of 0.4 mL acetonitrile (1:2). Proteins were precipitated by centrifugation at 10,625 g for 5 min, and 10 μL supernatant was injected into the UPLC system for quantification.

A further series deals with depressed rats. The series is described as follows: Chronic unpredictable stress depression model, sucrose preference test. The class given is in vivo, rat. To be noted: after 2 weeks of drug treatment, compared with model group, n = 8. On the procedure:
Forty rats were randomly divided into the following groups (n = 8): the normal control group, the model control group, the fluoxetine group (10 mg/kg), the paeoniflorin low-dose group (10 mg/kg), and the paeoniflorin high-dose group (20 mg/kg). Except for the blank control group, the groups were randomly exposed to two stressors, including behavioral constraints, ice water swimming, electric shock, cold stimulation, clip tail, wet bedding, light/dark reversed, shaking, foods and water deprivation, continuously for 8 weeks to establish a chronic unpredictable stress model. The sucrose preference test was performed at 0 and 14 days after administration.

For `C[C@@]12C[C@@]3(O)O[C@@H](O1)[C@]1(COC(=O)c4ccccc4)[C@H]3C[C@@]12O[C@@H]1O[C@H](CO)[C@@H](O)[C@H](O)[C@H]1O` [Paeoniflorin], the “production of benzoic acid in liver tissue homogenate” value in series [1] was “significantly lower than that in the intestinal bacteria incubation system”. Besides, the sucrose preference value entry in the series on depressed rats (10 mg/kg) and in the series with depressed rats (20 mg/kg) was “higher than that in the model group” in each case.
